One series has as its system MCF7 breast cancer cells. Nature of the series: MTT assay, MCF7. The conditions noted are these: for IC50 / cytotoxicity at 100 µg/mL: Homo sapiens, MCF7, 72 h; for IC50: read-out: IC50 MCF7. An excerpt:
(§1) All of the following steps were done in a sterile Laminar flow class II biosafety cabinet (Baker, SG406INT, Sanford, ME, USA). DMEM was used as a suspension medium for breast cancer (MCF7), colorectal cancer (HCT116), prostate cancer (PC3), liver cancer (HePG2), pancreatic cancer (PACA2) and lung cancer (A549), while normal cell line (BJ1) was suspended in DMEM-F12 medium. The selected cell lines were purchased from American Type Culture Collection (ATCC). The media were supplemented with a 1% antimycotic-antibiotic mixture (10,000 µg/ml streptomycin sulfate, 25 µg/ml Amphotericin B, and 10,000 U/ml Potassium Penicillin) and 1% L-glutamine. 10 × 10^4cells/well were seeded in 96 well microtiter plates and incubated for 24 h at 37 ℃ under 5% carbon dioxide using a water-jacketed Carbon dioxide incubator (Sheldon, SCO5A, OR, USA). […] After the incubation time of 72 h, the medium was removed. Afterward, 40 µl MTT salt ([…]) was added to each well and kept for 4 h under the same conditions of 37 °C and 5% carbon dioxide. Finally, 200 μl of 10% Sodium dodecyl sulfate (SDS) in deionized water was added to each well and incubated overnight at 37 °C. The step of SDS addition was done to stop the reaction and dissolve the formed formazan crystals. The absorbance was then measured at a wavelength of 595 nm and the reference wavelength was set at 620 nm using a microplate multi-well reader (Bio-Rad Laboratories Inc., model 3356, California, USA). […] A statistical significance analysis was determined between the samples and the negative control using an independent t-test by SPSS 11 program. Dimethyl sulfoxide (DMSO) was the vehicle that dissolved our synthesized compounds and its concentration in the cells was less than 0.2%. IC50 values were calculated using the GraphPad Prism 6 program. The degree of selectivity of the synthetic compounds was expressed as SI = IC50 of a pure compound in a normal cell line/IC50 of the same pure compound in the cancer cell line, where IC50 is the concentration of the compound required to kill 50% of the cells.

Series [1] can be described thus: MTT assay, normal cell line BJ1. The class given is cell-based. The conditions noted are these: human, at 100 μg/ml, read-out: MTT cell proliferation mortality assay (%) BJ1.
Text: as §1
In general terms: Tetrazolium assays rely on reduction of a dye to a coloured formazan, in cell work by metabolically active cells.

Series [2] relates to PACA2 pancreatic cancer cells. The experiment in a line: MTT assay, PACA2. The following applies: Homo sapiens, PaCa-2, 72 h; for cytotoxicity at 100 µg/mL: read-out: MTT cell proliferation mortality assay (%) PACA2; for IC50: read-out: IC50 PACA2.
Text: as §1

A further series concerns A549 lung cancer cells. The experiment in a line: MTT assay, A549. The conditions noted are these: for cytotoxicity at 100 µg/mL: read-out: MTT cell proliferation mortality assay (%) A549, at 100 μg/ml, 72 h.
Text: as §1

The test system of series [3] is PC3 prostate cancer cells. Nature of the series: MTT assay, PC3. The conditions noted are these: Homo sapiens, 72 h; for cytotoxicity at 100 µg/mL: read-out: MTT cell proliferation mortality assay (%) PC3, at 100 μg/ml, 72 h.
Text: as §1

The test system of the next series is HePG2 liver cancer cells. Nature of the series: MTT assay, HePG2. The conditions noted are these: Homo sapiens, HepG2, 72 h; for cytotoxicity at 100 µg/mL: read-out: MTT cell proliferation mortality assay (%) HePG2.
Text: as §1

The test system of series [4] is HCT116 colorectal cancer cells. Nature of the series: MTT assay, HCT116. The following applies: for cytotoxicity at 100 µg/mL: read-out: MTT cell proliferation mortality assay (%) HCT116, at 100 μg/ml, 72 h.
Text: as §1

Setting [5] is: read-out: MTT cell proliferation mortality assay (%) MCF7.

Seven compounds from paper PMC10463376, “Design, synthesis, in vitro anticancer, molecular docking and SAR studies of new series of pyrrolo[2,3-d]pyrimidine derivatives” (BMC Chemistry, 2023) can be followed below.

Converted amounts (≈) assume the structure as drawn.

As usually defined, the IC50 is the point on the concentration scale where inhibition reaches its midpoint. As for `COc1ccc(-c2c(Cl)n(-c3ccc(Cl)cc3Cl)c3ncnc(N4CCCC4)c23)cc1OC` [Compound 11b, 6-chloro-7-(2,4-dichlorophenyl)-5-(3,4-dimethoxyphenyl)-4-(pyrrolidin-1-yl)-7H-pyrrolo[2,3-d]pyrimidine], the IC50 in the series with MCF7 breast cancer cells was determined as 48.4 ± 0.8 µg/mL (≈ 96.1 µM); in series [3] (read-out: IC50 PC3), 27.7 ± 0.1 µg/mL (≈ 55 µM). Besides, the cytotoxicity at 100 µg/mL in the series on MCF7 breast cancer cells (setting [5]) turned out to be 80.4 ± 1.8%; in series [2], 25.6 ± 0.9%; with A549 lung cancer cells (Homo sapiens, A549, 72 h), 11.6 ± 0.9%; in series [3] it was 94.6 ± 1.3%; in the series on HePG2 liver cancer cells, 63.1 ± 0.5%; in series [4] (Homo sapiens, HCT-116, 72 h), 33.5 ± 0.4%. Also, the cytotoxicity with MCF7 breast cancer cells (read-out: MTT cell proliferation mortality assay (%) MCF7, at 100 μg/ml, 72 h) lay within 80 to 95%. For the same compound, the cytotoxicity at 72 h, 100 μg/ml in series [1] was found to be 56.9 ± 0.1%.
For `S=c1[nH]cnc2c1c(-c1ccc(Br)cc1)c(Cl)n2-c1ccc(Cl)cc1Cl` [Compound 12, 5-(4-bromophenyl)-6-chloro-7-(2,4-dichlorophenyl)-3,7-dihydro-4H-pyrrolo[2,3-d]pyrimidine-4-thione], the 50% inhibitory concentration (IC50) is 11.9 ± 0.9 µg/mL (≈ 24.5 µM) in the series on MCF7 breast cancer cells and 59.7 ± 0.7 µg/mL (≈ 123 µM) in series [2]. The cytotoxicity at 100 µg/mL in the series on MCF7 breast cancer cells (setting [5]) is 100%; in series [2], 81.5 ± 1.2%; in the series with A549 lung cancer cells (Homo sapiens, A549, 72 h), 71.3 ± 1.6%; in series [3], 3.1 ± 0.2%; with HePG2 liver cancer cells, 26.3 ± 3.4%; in series [4] (Homo sapiens, HCT-116, 72 h) it was 64.3 ± 1.1%. Besides, in series [1], the cytotoxicity at 72 h, 100 μg/ml turned out to be 100%.
As to `CN1CCN(c2ncnc3c2c(-c2ccc(Br)cc2)c(Cl)n3-c2ccc(Cl)cc2Cl)CC1` [Compound 16a, 5-(4-bromophenyl)-6-chloro-7-(2,4-dichlorophenyl)-4-(4-methylpiperazin-1-yl)-7H-pyrrolo[2,3-d]pyrimidine], the cytotoxicity at 100 µg/mL with MCF7 breast cancer cells (setting [5]) was 73.6 ± 2.2%; in series [2], 7.5 ± 1.1%; in the series with A549 lung cancer cells (Homo sapiens, A549, 72 h) it was 3.2 ± 0.5%; in series [3], 3.8 ± 0.3%; in the series with HePG2 liver cancer cells it was 100%; in series [4] (Homo sapiens, HCT-116, 72 h) it was 73.2 ± 0.8%. Moreover, the cytotoxicity at 72 h, 100 μg/ml in series [1] stood at 70.5 ± 0.4%.
`Clc1ccc(-n2cc(-c3ccc(Br)cc3)c3c(Cl)ncnc32)c(Cl)c1` [Compound 5, 5-(4-bromophenyl)-4-chloro-7-(2,4-dichlorophenyl)-7H-pyrrolo[2,3-d]pyrimidine]: the cytotoxicity at 100 µg/mL with MCF7 breast cancer cells (setting [5]) was 27.9 ± 1.2%; in series [2], 29.3 ± 0.8%; in the series on A549 lung cancer cells (Homo sapiens, A549, 72 h) it was 25.1 ± 0.7%; in series [3] it was 42.3 ± 1.3%; in the series on HePG2 liver cancer cells, 34.5 ± 2.9%; in series [4] (Homo sapiens, HCT-116, 72 h) it was 60.4 ± 0.9%. Further, in series [1], the cytotoxicity at 72 h, 100 μg/ml is 16.3 ± 2%.
Consider `Clc1ccc(-n2c(Cl)c(-c3ccc(Br)cc3)c3c(Cl)ncnc32)c(Cl)c1` [Compound 4a, 5-(4-bromophenyl)-4,6-dichloro-7-(2,4-dichlorophenyl)-7H-pyrrolo[2,3-d]pyrimidine], for which the IC50 came out at 32.4 ± 0.8 µg/mL (≈ 66.4 µM) with MCF7 breast cancer cells; 24.1 ± 1 µg/mL (≈ 49.4 µM) in series [2]; 68.9 ± 0.5 µg/mL (≈ 141 µM) in the series with A549 lung cancer cells (Homo sapiens, A549, 72 h, read-out: IC50 A549). Further, the cytotoxicity at 100 µg/mL in the series on MCF7 breast cancer cells (setting [5]) is 100%; in series [2] it was 100%; with A549 lung cancer cells (Homo sapiens, A549, 72 h), 80 to 90%; in series [3] it was 53 ± 0.7%; in the series with HePG2 liver cancer cells, 43.5 ± 2.2%; in series [4] (Homo sapiens, HCT-116, 72 h) it was 74.2 ± 2.5%. For the same compound, the cytotoxicity at 72 h, 100 μg/ml in series [1] amounted to 74.6 ± 0.6%. The cytotoxicity with A549 lung cancer cells (read-out: MTT cell proliferation mortality assay (%) A549, at 100 μg/ml, 72 h) amounted to 79.4 ± 1.6%.
As for `O=c1[nH]cnc2c1c(-c1ccc(Br)cc1)cn2-c1ccc(Cl)cc1Cl` [Compound 3a, 5-(4-bromophenyl)-7-(2,4-dichlorophenyl)-3,7-dihydro-4H-pyrrolo[2,3-d]pyrimidin-4-one], the cytotoxicity at 100 µg/mL with MCF7 breast cancer cells (setting [5]) is 63.5 ± 2.6%; in series [2] it was 71.3 ± 0.8%; in the series with A549 lung cancer cells (Homo sapiens, A549, 72 h), 3.4 ± 0.2%; in series [3], 36.5 ± 0.9%; with HePG2 liver cancer cells, 100%; in series [4] (Homo sapiens, HCT-116, 72 h) it was 80 to 90%. In series [1], the cytotoxicity at 72 h, 100 μg/ml stood at 95.3 ± 1.8%. Besides, the half-inhibitory concentration (IC50) in the series on HePG2 liver cancer cells (read-out: IC50 HePG2) turned out to be 19.2 ± 0.6 µg/mL (≈ 44.1 µM); in series [4] (Homo sapiens, HCT-116, 72 h, read-out: IC50 HCT116) it was 44.5 ± 1.3 µg/mL (≈ 102 µM). Further, the cytotoxicity in series [4] (read-out: MTT cell proliferation mortality assay (%) HCT116, at 100 μg/ml, 72 h) is 84.3 ± 1.1%.
For `Clc1ccc(-n2c(Cl)c(-c3ccc(Br)cc3)c3c(N4CCOCC4)ncnc32)c(Cl)c1` [Compound 18a, 4-(5-(4-bromophenyl)-6-chloro-7-(2,4-dichlorophenyl)-7H-pyrrolo[2,3-d]pyrimidin-4-yl)morpholine], the cytotoxicity at 100 µg/mL in the series with MCF7 breast cancer cells (setting [5]) turned out to be 41.2 ± 1.5%; in series [2], 31 ± 1.3%; in the series with A549 lung cancer cells (Homo sapiens, A549, 72 h), 22.7 ± 0.9%; in series [3] it was 2.1 ± 0.6%; with HePG2 liver cancer cells, 16.4 ± 1.6%; in series [4] (Homo sapiens, HCT-116, 72 h) it was 54.2 ± 1.2%. In series [1], the cytotoxicity at 72 h, 100 μg/ml amounted to 3.2 ± 1.5%.
